Reference: PubChem BioAssay (NCI)
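Abbreviation: GI50, concentration required for 50% inhibition of growth. The concentration for full growth arrest is given as TGI.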

Key:
Test in all cases: inhibition of tumour cell growth, NCI panel, 384-well format
[1] = system: SF-268 CNS
[2] = system: COLO 205 colon
[3] = system: SN12C renal
[4] = system: HS 578T breast
[5] = system: MDA-MB-231 breast
[6] = system: SF-295 CNS
[7] = system: HT29 colon
[8] = system: NCI-H522 lung
[9] = system: CAKI-1 renal
[10] = system: SNB-19 CNS
[11] = system: SF-539 CNS
[12] = system: BT-549 breast
[13] = system: NCI-H23 lung
[14] = system: NCI-H322M lung
[15] = system: PC-3 prostate
[16] = system: HL-60(TB) leukemia
[17] = system: K-562 leukemia
[18] = system: UACC-62 melanoma
[19] = system: OVCAR-3 ovarian
[20] = system: M14 melanoma
[21] = system: UACC-257 melanoma
[22] = system: RXF 393 renal
[23] = system: NCI/ADR-RES ovarian
[24] = system: NCI-H460 NSCLC
[25] = system: OVCAR-8 ovarian
[26] = system: CCRF-CEM leukemia
[27] = system: SK-OV-3 ovarian
[28] = system: ACHN renal
[29] = system: HCT-15 colon
[30] = system: 786-0 renal
[31] = system: MDA-MB-435 melanoma
[32] = system: HCC-2998 colon
[33] = system: HOP-92 NSCLC
[34] = system: T-47D breast
[35] = system: OVCAR-5 ovarian
[36] = system: SR leukemia
[37] = system: EKVX NSCLC
[38] = system: SNB-75 CNS
[39] = system: RPMI-8226 leukemia
[40] = system: DU-145 prostate
[41] = system: LOX IMVI melanoma
[42] = system: MCF7 breast
[43] = system: A498 renal
[44] = system: A549 NSCLC
[45] = system: TK-10 renal
[46] = system: IGROV1 ovarian
[47] = system: UO-31 renal
[48] = system: MDA-MB-468 breast
[49] = system: OVCAR-4 ovarian
[50] = system: NCI-H226 lung
[51] = system: SK-MEL-28 melanoma
[52] = system: SW-620 colon
[53] = system: MALME-3M melanoma
[54] = system: KM12 colon
[55] = system: MOLT-4 leukemia
[56] = system: SK-MEL-5 melanoma

Q: What does the source list for COCc1cc(C(=O)Nc2cc([C@H]3CC[C@@H](OC(=O)NC(C)C)C3)[nH]n2)n(C)n1?
A: GI50 [1]: 2.37 µM; TGI [1]: 15.4 µM; GI50 [2]: 0.975 µM; TGI [2]: 19 µM; GI50 [3]: 4.38 µM; TGI [3]: 23.9 µM; GI50 [4]: 11.4 µM; TGI [4]: 29.5 µM; GI50 [5]: 9.08 µM; TGI [5]: > 100 µM; GI50 [6]: 10.3 µM; TGI [6]: 79.3 µM; GI50 [7]: 12.4 µM; TGI [7]: > 100 µM; GI50 [8]: 15.1 µM; TGI [8]: 31.6 µM; GI50 [9]: 3.99 µM; TGI [9]: > 100 µM; GI50 [10]: 5.67 µM; TGI [10]: > 100 µM; GI50 [11]: 3.97 µM; TGI [11]: 19.6 µM; GI50 [12]: 3.38 µM; TGI [12]: 20.3 µM; GI50 [13]: 2.48 µM; TGI [13]: 10.1 µM; GI50 [14]: 3.8 µM; TGI [14]: 13 µM; GI50 [15]: 6.59 µM; TGI [15]: > 100 µM; GI50 [16]: 1.52 µM; TGI [16]: 2.89 µM; GI50 [17]: 13.8 µM; TGI [17]: 65.2 µM; GI50 [18]: 2.98 µM; TGI [18]: 12.8 µM; GI50 [19]: 5.24 µM; TGI [19]: 28.8 µM; GI50 [20]: 4.82 µM; TGI [20]: 18.8 µM; GI50 [21]: 6.8 µM; TGI [21]: 25.3 µM; GI50 [22]: 5.42 µM; TGI [22]: 23.4 µM; GI50 [23]: > 100 µM; TGI [23]: > 100 µM; GI50 [24]: 3.07 µM; TGI [24]: 14.3 µM; GI50 [25]: 4.64 µM; TGI [25]: 36.2 µM; GI50 [26]: 2.81 µM; TGI [26]: 7.24 µM; GI50 [27]: 8.29 µM; TGI [27]: 90.1 µM; GI50 [28]: 3.45 µM; TGI [28]: > 100 µM; GI50 [29]: 6.45 µM; TGI [29]: 37.4 µM; GI50 [30]: 5.05 µM; TGI [30]: 64.2 µM; GI50 [31]: 12.5 µM; TGI [31]: 84.8 µM; GI50 [32]: 5.15 µM; TGI [32]: 25.9 µM; GI50 [33]: 14 µM; TGI [33]: > 100 µM; GI50 [34]: 5.58 µM; TGI [34]: > 100 µM; GI50 [35]: 3.12 µM; TGI [35]: 9.17 µM; GI50 [36]: 0.557 µM; TGI [36]: 1.86 µM; GI50 [37]: 14.9 µM; TGI [37]: 48.8 µM; GI50 [38]: 8.98 µM; TGI [38]: 22.3 µM; GI50 [39]: 1.84 µM; TGI [39]: 6.78 µM; GI50 [40]: 3.14 µM; TGI [40]: > 100 µM; GI50 [41]: 3.12 µM; TGI [41]: 18.9 µM; GI50 [42]: 2.66 µM; TGI [42]: 13.4 µM; GI50 [43]: 1.52 µM; TGI [43]: > 100 µM; GI50 [44]: 3.03 µM; TGI [44]: > 100 µM; GI50 [45]: 14.8 µM; TGI [45]: > 100 µM; GI50 [46]: 4.47 µM; TGI [46]: > 100 µM; GI50 [47]: 31.5 µM; TGI [47]: > 100 µM; GI50 [48]: 13.9 µM; TGI [48]: 27 µM; GI50 [49]: 18.3 µM; TGI [49]: 52.7 µM; GI50 [50]: 2.85 µM; TGI [50]: 51.6 µM; GI50 [51]: 10.3 µM; TGI [51]: 22.8 µM; GI50 [52]: 2.45 µM; TGI [52]: 65.4 µM; GI50 [53]: 12.3 µM; TGI [53]: 26.1 µM; GI50 [54]: 0.571 µM; TGI [54]: 17.2 µM; GI50 [55]: 4.36 µM; TGI [55]: 12.5 µM; GI50 [56]: 0.762 µM; TGI [56]: 13.9 µM
